{
  "source": "patent US20230219921A1",
  "about": "“KCNT1 INHIBITORS AND METHODS OF USE” (Praxis Precision Medicines, Inc., priority 2020, published 2023)",
  "data": [
    {"biological_target": "T1, KCNT1 (KNa1.1, Slack) (Homo sapiens, UniProt Q5JUK3)", "T1 construct": "expressed in transfected cells; host or cells: HEK-TREX (tetracycline-inducible HEK cell line)", "T1 sequence (Q5JUK3 1-1230)": "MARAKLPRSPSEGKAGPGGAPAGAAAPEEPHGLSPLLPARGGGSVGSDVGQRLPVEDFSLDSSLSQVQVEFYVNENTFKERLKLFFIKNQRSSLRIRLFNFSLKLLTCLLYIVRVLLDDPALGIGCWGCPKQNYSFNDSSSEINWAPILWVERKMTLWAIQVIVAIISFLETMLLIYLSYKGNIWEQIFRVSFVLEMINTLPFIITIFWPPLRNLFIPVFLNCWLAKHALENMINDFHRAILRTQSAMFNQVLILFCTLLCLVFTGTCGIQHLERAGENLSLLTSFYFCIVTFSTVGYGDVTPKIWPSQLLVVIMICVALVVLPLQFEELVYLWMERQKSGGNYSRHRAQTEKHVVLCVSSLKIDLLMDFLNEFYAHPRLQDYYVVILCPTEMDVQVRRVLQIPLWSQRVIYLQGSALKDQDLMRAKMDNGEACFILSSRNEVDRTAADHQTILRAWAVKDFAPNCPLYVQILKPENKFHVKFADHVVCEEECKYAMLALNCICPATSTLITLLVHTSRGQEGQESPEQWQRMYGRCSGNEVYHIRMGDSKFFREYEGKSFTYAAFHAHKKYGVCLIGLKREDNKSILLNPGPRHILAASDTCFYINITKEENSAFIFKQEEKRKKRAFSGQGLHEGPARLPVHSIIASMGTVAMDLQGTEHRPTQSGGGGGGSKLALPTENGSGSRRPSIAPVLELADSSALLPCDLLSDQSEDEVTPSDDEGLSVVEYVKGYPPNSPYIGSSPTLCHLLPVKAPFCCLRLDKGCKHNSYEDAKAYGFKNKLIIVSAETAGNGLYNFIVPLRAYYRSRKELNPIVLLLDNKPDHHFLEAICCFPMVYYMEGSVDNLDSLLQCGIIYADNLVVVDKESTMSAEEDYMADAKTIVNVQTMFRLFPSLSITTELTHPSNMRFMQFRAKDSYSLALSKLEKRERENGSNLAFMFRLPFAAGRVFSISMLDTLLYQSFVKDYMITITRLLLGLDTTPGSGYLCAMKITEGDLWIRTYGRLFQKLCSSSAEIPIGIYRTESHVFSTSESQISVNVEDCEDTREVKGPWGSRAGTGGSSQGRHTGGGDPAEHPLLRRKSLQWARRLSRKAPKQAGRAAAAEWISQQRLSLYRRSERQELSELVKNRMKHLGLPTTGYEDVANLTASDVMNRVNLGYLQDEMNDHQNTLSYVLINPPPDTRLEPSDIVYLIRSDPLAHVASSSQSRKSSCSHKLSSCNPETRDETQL", "experiment": "KCNT1 patch clamp assay (SyncroPatch 384PE automated patch clamp)", "type": "cell-based", "details": "tetracycline inducible cell line (HEK-TREX); perforated patch mode; step from -80 mV to 0 mV; room temperature; read-out: KCNT1-WT IC50", "protocol": "Inhibition of KCNT1 (KNa1.1, Slack) was evaluated using a tetracycline inducible cell line (HEK-TREX). Currents were recorded using the SyncroPatch 384PE automated, patch clamp system. Pulse generation and data collection were performed with PatchController384 V1.3.0 and DataController384 V1.2.1 (Nanion Technologies). The access resistance and apparent membrane capacitance were estimated using built-in protocols. Current were recorded in perforated patch mode (10 μM escin) from a population of cells. The cells were lifted, triturated, and resuspended at 800,000 cells/ml. The cells were allowed to recover in the cell hotel prior to experimentation. Currents were recorded at room temperature. The external solution contained the following (in mM): NaCl 105, NMDG 40, KCl 4, MgCl2 1, CaCl2 5 and HEPES 10 (pH=7.4, Osmolarity ˜300 mOsm). The extracellular solution was used as the wash, reference and compound delivery solution. The internal solution contained the following (in mM): NaCl 70, KF 70, KCl 10, EGTA 5, HEPES 5 and Escin 0.01 (pH=7.2, Osmolarity ˜295 mOsm). Escin is made at a 5 mM stock in water, aliquoted, and stored at −20° C. The compound plate was created at 2× concentrated in the extracellular solution. The compound was diluted to 1:2 when added to the recording well. The amount of DMSO in the extracellular solution was held constant at the level used for the highest tested concentration. A holding potential of −80 mV with a 100 ms step to 0 mV was used. Mean current was measured during the step to 0 mV. […] The average mean current from 3 sweeps was calculated and the % inhibition of each compound was calculated. The % Inhibition as a function of the compound concentration was fit with a Hill equation to derive IC50, slope, min and max parameters. If KCNT1 inhibition was less than 50% at the highest tested concentration or if an IC50 could not be calculated, then a percent inhibition was reported in place of the IC50.\nIn this table, “A” indicates IC50 of less than or equal to 1 μM; “B” indicates inhibition of between 1 μM to 20 μM; and “C” indicates inhibition of greater than or equal to 20 μM.", "units": {"IC50": "nM"}, "values": [
      {"smiles": "CNS(=O)(=O)c1ccc(C(=O)NCc2ccc(C(C)C)cc2)s1", "note": "[Compound 19, N-(4-isopropylbenzyl)-5-(N-methylsulfamoyl)thiophene-2-carboxamide]", "IC50": "≤ 1000"},
      {"smiles": "CCS(=O)(=O)c1ccc(C(=O)NCc2ccc(C(F)(F)F)cc2)s1", "note": "[Compound 49, 5-(ethylsulfonyl)-N-(4-(trifluoromethyl)benzyl)thiophene-2-carboxamide]", "IC50": "≤ 1000"},
      {"smiles": "CS(=O)(=O)c1ccc(C(=O)NCc2ccc(C3(C(F)(F)F)CC3)cc2)s1", "note": "[Compound 37, 5-(methylsulfonyl)-N-(4-(1-(trifluoromethyl)cyclopropyl)benzyl)thiophene-2-carboxamide]", "IC50": "≤ 1000"},
      {"smiles": "Cc1cc(C(F)(F)F)ncc1CNC(=O)c1ccc(S(C)(=O)=O)s1", "note": "[Compound 54, N-((4-methyl-6-(trifluoromethyl)pyridin-3-yl)methyl)-5-(methylsulfonyl)thiophene-2-carboxamide]", "IC50": "1000 to 20000"},
      {"smiles": "CNS(=O)(=O)c1ccc(C(=O)NCc2ccc(Cl)cc2Cl)s1", "note": "[Compound 3, N-(2,4-dichlorobenzyl)-5-(N-methylsulfamoyl)thiophene-2-carboxamide]", "IC50": "≤ 1000"},
      {"smiles": "CS(=O)(=O)c1ccc(C(=O)NCc2ccc(C(F)(F)F)cn2)s1", "note": "[Compound 48, 5-(methylsulfonyl)-N-((5-(trifluoromethyl)pyridin-2-yl)methyl)thiophene-2-carboxamide]", "IC50": "1000 to 20000"},
      {"smiles": "CC(C)S(=O)(=O)c1ccc(C(=O)NCc2ccc(C(F)(F)F)cc2)s1", "note": "[Compound 50, 5-(isopropylsulfonyl)-N-(4-(trifluoromethyl)benzyl)thiophene-2-carboxamide]", "IC50": "≤ 1000"},
      {"smiles": "CNS(=O)(=O)c1ccc(C(=O)NCc2ccc(NC(C)C)cc2)s1", "note": "[Compound 40, N-(4-(isopropylamino)benzyl)-5-(N-methylsulfamoyl)thiophene-2-carboxamide]", "IC50": "≥ 20000"},
      {"smiles": "CNS(=O)(=O)c1ccc(C(=O)NCc2ccc(C)cc2)s1", "note": "[Compound 22, N-(4-methylbenzyl)-5-(N-methylsulfamoyl)thiophene-2-carboxamide]", "IC50": "≤ 1000"},
      {"smiles": "CC(C)c1ccc(CNC(=O)c2ccc(S(C)(=O)=O)s2)cc1", "note": "[Compound 24, N-(4-isopropylbenzyl)-5-(methylsulfonyl)thiophene-2-carboxamide]", "IC50": "≤ 1000"},
      {"smiles": "CNS(=O)(=O)c1ccc(C(=O)NCc2ccc(C(F)(F)F)cc2C)s1", "note": "[Compound 45, N-(2-methyl-4-(trifluoromethyl)benzyl)-5-(N-methylsulfamoyl)thiophene-2-carboxamide]", "IC50": "≤ 1000"},
      {"smiles": "CNS(=O)(=O)c1ccc(C(=O)NCc2ccc(C(F)(F)F)cc2F)s1", "note": "[Compound 43, N-(2-fluoro-4-(trifluoromethyl)benzyl)-5-(N-methylsulfamoyl)thiophene-2-carboxamide]", "IC50": "≤ 1000"},
      {"smiles": "CNS(=O)(=O)c1ccc(C(=O)NCc2ccc(Cl)cc2Br)s1", "note": "[Compound 11, N-(2-bromo-4-chlorobenzyl)-5-(N-methylsulfamoyl)thiophene-2-carboxamide]", "IC50": "≤ 1000"},
      {"smiles": "O=C(NCc1ccc(C(F)(F)F)cc1)c1ccc(S(=O)(=O)C2CC2)s1", "note": "[Compound 47, 5-(cyclopropylsulfonyl)-N-(4-(trifluoromethyl)benzyl)thiophene-2-carboxamide]", "IC50": "≤ 1000"},
      {"smiles": "CS(=O)(=O)c1ccc(C(=O)NCc2ccc(OCC(F)(F)F)cc2)s1", "note": "[Compound 34, 5-(methylsulfonyl)-N-(4-(2,2,2-trifluoroethoxy)benzyl)thiophene-2-carboxamide]", "IC50": "1000 to 20000"},
      {"smiles": "CNS(=O)(=O)c1ccc(C(=O)N[C@H](C)c2ccc(Cl)cc2)s1", "note": "[Compound 4, (R)—N-(1-(4-chlorophenyl)ethyl)-5-(N-methylsulfamoyl)thiophene-2-carboxamide]", "IC50": "≤ 1000"},
      {"smiles": "CNS(=O)(=O)c1ccc(C(=O)NCc2ccc(N3CCCC3)cc2)s1", "note": "[Compound 30, 5-(N-methylsulfamoyl)-N-(4-(pyrrolidin-1-yl)benzyl)thiophene-2-carboxamide]", "IC50": "≥ 20000"},
      {"smiles": "CNS(=O)(=O)c1ccc(C(=O)NCc2ccc(C(F)(F)F)cc2)s1", "note": "[Compound 29, 5-(N-methylsulfamoyl)-N-(4-(trifluoromethyl)benzyl)thiophene-2-carboxamide]", "IC50": "≤ 1000"},
      {"smiles": "CNS(=O)(=O)c1ccc(C(=O)NCc2ccc(C#N)cc2)s1", "note": "[Compound 17, N-(4-cyanobenzyl)-5-(N-methylsulfamoyl)thiophene-2-carboxamide]", "IC50": "1000 to 20000"},
      {"smiles": "CNS(=O)(=O)c1ccc(C(=O)NCc2cccc(Cl)c2)s1", "note": "[Compound 18, N-(3-chlorobenzyl)-5-(N-methylsulfamoyl)thiophene-2-carboxamide]", "IC50": "≤ 1000"},
      {"smiles": "CNS(=O)(=O)c1ccc(C(=O)NCc2ccc(Cl)cc2)s1", "note": "[Compound 7, N-(4-chlorobenzyl)-5-(N-methylsulfamoyl)thiophene-2-carboxamide]", "IC50": "≤ 1000"},
      {"smiles": "CS(=O)(=O)c1ccc(C(=O)NCc2ccc(N3CCCC3)cc2)s1", "note": "[Compound 23, 5-(methylsulfonyl)-N-(4-(pyrrolidin-1-yl)benzyl)thiophene-2-carboxamide]", "IC50": "≥ 20000"},
      {"smiles": "O=C(NCc1ccc(Cl)cc1Cl)c1ccc(S(=O)(=O)C2CC2)s1", "note": "[Compound 15, 5-(Cyclopropylsulfonyl)-N-(2,4-dichlorobenzyl)thiophene-2-carboxamide]", "IC50": "≤ 1000"},
      {"smiles": "CNS(=O)(=O)c1ccc(C(=O)NCc2ccc(Cl)cc2C2CC2)s1", "note": "[Compound 12, N-(4-chloro-2-cyclopropylbenzyl)-5-(N-methylsulfamoyl)thiophene-2-carboxamide]", "IC50": "≤ 1000"}
    ]}
  ]
}
